Measurements: PMC10210398, “Genomic, functional and structural analyses elucidate evolutionary innovation within the sea anemone 8 toxin family” (BMC Biology, 2023)

Legend:
hKV10.1 = test: Whole-cell patch-clamp, hKV10.1 in transiently transfected CHO cells; type: cell-based, human; settings: 2 µM, KV10.1
Procedure: (§1) CHO and human embryonic kidney (HEK 293) cells were grown in DMEM-high glucose supplemented with 10% FBS, 2 mM L-glutamine, 100 U/mL penicillin-g, and 100 μg/mL streptomycin (Invitrogen) at 37 °C in a 5% CO2 and 95% air humidified atmosphere. Cells were passaged twice per week following a 5-min incubation in PBS containing 0.2 g/L EDTA (Invitrogen, Carlsbad, CA).
(§2) CHO cells (ATCC) were transiently transfected with plasmids encoding hKV1.1, hKV1.2, hKV10.1, hKCa3.1, hTRPA1, or hNaV1.7 using Lipofectamine 2000 (Invitrogen, Carlsbad, CA) following the manufacturer’s protocol, then cultured under standard conditions. The cells were co-transfected with a plasmid encoding green fluorescent protein (GFP) at a molar ratio of 10:1 except for hKV1.1, hKV1.2, and hKCa3.1 for which GFP-tagged ion channel vectors were used. Currents were recorded 24–36 h after transfection. […] HEK 293 cells stably expressing the hKv11.1 channel (hERG, hKCNH2 gene, a kind gift from H. Wulff, University of California, Davis, CA) and mKCa1.1 channel (BKCa, hKCNMA1, a kind gift from C. Beeton, Baylor College of Medicine, Houston, TX) were used. hTRPV1 channels were expressed in a stable manner in CHO cells. Transfected cells were washed twice with 2 mL of ECS (see below) and re-plated onto 35-mm polystyrene cell culture dishes (Cellstar, Greiner Bio-One). hKV1.3 currents were recorded from activated peripheral blood mononuclear cells (PBMCs, see below) 3–4 days after activation. Human veinous blood was obtained from anonymised healthy donors. […]
(§3) Conventional whole-cell patch-clamp electrophysiology was used to record ionic currents. […] Data were analysed using Prism 8 (GraphPad, CA, USA) and ClampFit 10.5 software (Molecular Devices Inc., Sunnyvale, CA). […] For hKCa3.1, hTRPA1 and hTRPV1, the reversal potential for K^+ was determined and only those currents were analysed for which the reversal potential fell into the range of the theoretical reversal potential ± 5 mV (− 86.5 ± 5 mV for KCa3.1, and 0 ± 5 mV for hTRPA1 and hTRPV1).

hKV1.1 [1] = type: cell-based, human
Procedure: as §1, §2, §3

hKV1.3 [2] = type: cell-based, human
Procedure: as §2, with “donors. PBMCs were isolated using Histopaque1077 (Sigma-Aldrich Hungary, Budapest, Hungary) density gradient centrifugation. Cells obtained were resuspended in RPMI 1640 medium containing 10% foetal calf serum (Sigma-Aldrich Hungary, Budapest, Hungary), 100 μg/mL penicillin, 100 μg/mL streptomycin, and 2 mM L-glutamine, seeded in a 24-well culture plate at a density of 5–6 × 10^5 cells/mL, and grown in a 5% CO2 incubator at 37 °C for 3–5 days.” for “donors.”
as §3

mKCa1.1 channel [3] = type: cell-based
Procedure: as §1, §2, §3

hKV1.1 [4] = settings: read-out: Kd (positive control concentration equivalent to Kd); KV1.1; no reference given; cited from earlier work
Procedure: (§4) Voltage protocols: For measurement of hKV1.1–1.3 and hKV10.1, currents, voltage steps to + 50 mV, were applied from a holding potential of − 120 mV every 15 or 30 s and the peak current was measured. Channels were activated by a series of depolarisation pulses to + 50 mV from a holding potential of − 120 mV. For KV1.1, 50-ms-long activating stimuli were used every 15 s. Due to the highly variable activation kinetics of KV1.2 [145] 200-ms-long pulses were applied every 15 s to maximise the open probability of the channel.

hKV1.3 [5] = settings: read-out: Kd (positive control concentration equivalent to Kd); KV1.3; no reference given; cited from earlier work
Procedure: as §4

mKCa1.1 channel [6] = settings: read-out: Kd (positive control concentration equivalent to Kd); KCa1.1; no reference given; cited from earlier work
Procedure: as §4

hKV1.2 = molecular target: T1, hKV1.2 (Homo sapiens, UniProt P16389); test: Whole-cell patch-clamp, hKV1.2 in transiently transfected CHO cells; type: cell-based; set-up: reduction in current amplitude, positive control: dose or concentration left out as unconfirmed; settings: […] nM, KV1.2
T1 construct: GFP; expressed in transfected cells; host or cells: CHO cells (ATCC), transient transfection with Lipofectamine 2000
Procedure: as §1
CHO cells (ATCC) were transiently transfected with plasmids encoding hKV1.1, hKV1.2, hKV10.1, hKCa3.1, hTRPA1, or hNaV1.7 using Lipofectamine 2000 (Invitrogen, Carlsbad, CA) following the manufacturer’s protocol, then cultured under standard conditions. The cells were co-transfected with a plasmid encoding green fluorescent protein (GFP) at a molar ratio of 10:1 except for hKV1.1, hKV1.2, and hKCa3.1 for which GFP-tagged ion channel vectors were used. Currents were recorded 24–36 h after transfection. […] HEK 293 cells stably expressing the hKv11.1 channel (hERG, hKCNH2 gene, a kind gift from H. Wulff, University of California, Davis, CA) and mKCa1.1 channel (BKCa, hKCNMA1, a kind gift from C. Beeton, Baylor College of Medicine, Houston, TX) were used. hTRPV1 channels were expressed in a stable manner in CHO cells. Transfected cells were washed twice with 2 mL of ECS (see below) and re-plated onto 35-mm polystyrene cell culture dishes (Cellstar, Greiner Bio-One). hKV1.3 currents were recorded from activated peripheral blood mononuclear cells (PBMCs, see below) 3–4 days after activation. Human veinous blood was obtained from anonymised healthy donors. PBMCs were isolated using Histopaque1077 (Sigma-Aldrich Hungary, Budapest, Hungary) density gradient centrifugation. Cells obtained were resuspended in RPMI 1640 medium containing 10% foetal calf serum (Sigma-Aldrich Hungary, Budapest, Hungary), 100 μg/mL penicillin, 100 μg/mL streptomycin, and 2 mM L-glutamine, seeded in a 24-well culture plate at a density of 5–6 × 10^5 cells/mL, and grown in a 5% CO2 incubator at 37 °C for 3–5 days. Phytohemagglutinin A (PHA, Sigma-Aldrich Hungary, Budapest, Hungary) was added to the medium at 10 μg/mL to amplify the KV1.3 expression. Cells were washed gently twice with 2 mL of ECS for the patch-clamp experiments.
Conventional whole-cell patch-clamp electrophysiology was used to record ionic currents. Micropipettes were pulled in four stages using a Flaming Brown automatic pipette puller (Sutter Instruments, San Rafael, CA) from Borosilicate Standard Wall with Filament aluminium–silicate glass (Harvard Apparatus Co., Holliston, MA) with tip diameters between 0.5 and 1 μm and heat polished to a tip resistance of 2–8 MΩ. All measurements were carried out by using Axopatch 200B amplifier connected to a personal computer using Axon Digidata 1550A data acquisition hardware (Molecular Devices, Sunnyvale, CA). In general, the holding potential was − 120 mV. Records were discarded when a leak at the holding potential was > 10% of the peak current at the test potential. Series resistance compensation up to 70% was used to minimise voltage errors and achieve proper voltage-clamp conditions. Experiments were performed at room temperature (20–24 °C). Data were analysed using Prism 8 (GraphPad, CA, USA) and ClampFit 10.5 software (Molecular Devices Inc., Sunnyvale, CA). Before analysis, whole-cell current traces were corrected for ohmic leakage and digitally filtered with a three-point boxcar smoothing filter. For hKCa3.1, hTRPA1 and hTRPV1, the reversal potential for K^+ was determined and only those currents were analysed for which the reversal potential fell into the range of the theoretical reversal potential ± 5 mV (− 86.5 ± 5 mV for KCa3.1, and 0 ± 5 mV for hTRPA1 and hTRPV1).

T1 sequence (P16389 whole entry): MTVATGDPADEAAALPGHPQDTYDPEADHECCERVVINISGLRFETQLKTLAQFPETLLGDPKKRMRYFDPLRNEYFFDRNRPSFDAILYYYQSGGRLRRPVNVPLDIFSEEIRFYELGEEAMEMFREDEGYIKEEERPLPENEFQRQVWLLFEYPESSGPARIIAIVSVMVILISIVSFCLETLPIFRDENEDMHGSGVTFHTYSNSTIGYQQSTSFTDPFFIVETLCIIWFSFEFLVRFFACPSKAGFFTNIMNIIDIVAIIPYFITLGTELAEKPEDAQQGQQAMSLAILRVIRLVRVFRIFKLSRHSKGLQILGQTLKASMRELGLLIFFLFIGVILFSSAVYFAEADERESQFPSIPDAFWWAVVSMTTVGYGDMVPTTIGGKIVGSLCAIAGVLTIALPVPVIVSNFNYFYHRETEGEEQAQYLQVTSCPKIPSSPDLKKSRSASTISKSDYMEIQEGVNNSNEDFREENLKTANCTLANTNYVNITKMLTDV

With `COc1ccc(CCN2CCC(Nc3nc4ccccc4n3Cc3ccc(F)cc3)CC2)cc1` [Astemizole, astemizole, reference compound] the “reduction in current amplitude, positive control” value (“reduction in current amplitude” below) (hKV10.1) was ~50%.
In the case of `CC[N+](CC)(CC)CC` [TEA+, tetraethylammonium, reference compound], the “reduction in current amplitude” value (hKV1.1 [1]) is reported as ~50%, the “reduction in current amplitude” value (hKV1.3 [2]) is reported as ~50% and the “reduction in current amplitude” value (mKCa1.1 channel [3]) is reported as ~50%. The Kd (hKV1.1 [4]) was 0.3 mM, the Kd (hKV1.3 [5]) was 10 mM and the Kd (mKCa1.1 channel [6]) was 10 mM.
In the case of “charybdotoxin [ChTx, reference compound]”, the “reduction in current amplitude” value (hKV1.2) is reported as ~50%.
